Experimental findings from patent US20230204569A1, “ANALYSIS DEVICE” (INCYTON GMBH, priority 2020, published 2023) are described below.

The structures appear in SMILES notation.

The subject of data set [1] is L929 mouse fibroblast cells. The experiment in a line: Toxicology assay: OCR, ECAR and morphology under SLS. In kind it is cell-based. The procedure:
L929 mouse fibroblast cells were investigated under the influence of the reference toxicant sodium lauryl sulfate (SLS). The test settings included 12 h of pretreatment and 12 h of treatment with different concentrations of SLS. Throughout the assay, oxygen consumption and extracellular acidification, as well as morphology based on regular microscope images, were recorded.

For data set [2], the system named is Mouse fibroblast L929 cells.
Experimental: A mitochondrial stress test was performed in a device of the present invention. Mouse fibroblast L929 cells were cultivated in the wells of a micro-titer plate at 37° C. and provided with fresh media in time intervals of 20 min.
A measurement cycle involved addition of following compounds at the indicated time points:
t=60 min: Addition of 1 μM oligomycin A
t=140 min: Addition of 1 μM antimycin A and 1 μM rotenone
Where [3] appears, read: 77.8 μg/ml SLS, first 3 h after SLS addition.

As to `CCCCCCCCCCCCOS(=O)(=O)[O-].[Na+]` [SLS, sodium lauryl sulfate], the “outcome after continuation of the treatment (12 h treatment)” value in data set [1] (77.8 μg/ml SLS, continued treatment) is “cell death and a drop in all metabolic values”. In addition, in data set [1] (setting [3]), the “acidification (ECAR)” value is “increases” and the “oxygen uptake (OCR)” value is reported as “reduced”. Besides, in data set [1] (77.8 μg/ml and 778 μg/ml SLS), the “OCRs and ECARs dose and time dependence” value is “clear dose- and time-dependent reaction”.
Take `N#CC(C#N)=NNc1ccc(OC(F)(F)F)cc1` [FCCP, carbonyl cyanide p-(trifluoromethoxy) phenylhydrazone]: the “Maximum respiration (OCR) as % of the basal respiration” value in data set [2] (0.13 μM and 0.25 μM FCCP added at t=100 min after 1 μM oligomycin A) is given as 131%. Besides, in data set [2] (maximum respiration under FCCP minus basal respiration), the reserve capacity is given as 31%.
